Results: US20230210833A1, “USE OF IRAK4 INHIBITOR IN TREATMENT OF ACUTE LUNG INJURY ALI/ARDS” (SHANGHAI LEADINGTAC PHARMACEUTICAL CO., LTD., priority 2020, published 2023)

Tests used:
Assay type in all cases: in vivo, Balb/c mice
TNF-α = TNF-α in alveolar lavage fluid of LPS-induced ALI/ARDS mice (Elisa); conditions: for Inhibition of TNF-α (%): oral single dose 0.5 h before LPS (146 150 mg/kg, 41 75 mg/kg, 450 100 mg/kg, dexamethasone 10 mg/kg), alveolar lavage fluid supernatant 4 hours after LPS
Method: (§1) After LPS induced model for 4 hours, all mice were anesthetized and alveolar lavage fluid was collected, and the supernatant was collected by centrifuging alveolar lavage fluid. The levels of TNF-α, IL-6 and IL-1β in the supernatant were detected by enzyme-linked immunosorbent assay (Elisa).

[1] = system: LPS-induced ALI/ARDS model mice; assay: Cell count of alveolar lavage fluid in LPS-induced ALI/ARDS mice; conditions: 24 hours after LPS, oral dosing 0.5 h before and 6 hours after LPS
Method: (§2) LPS induced model was given again after 6 hours, and the dose was the same as that of the first administration. After 24 hours from LPS induced model, all mice were weighed, the animals used were anesthetized and the alveolar lavage fluid was collected, the lower cell pellets were collected after centrifugation, and the cells were resuspended, fixed with methanol and stained with Wright-Giemsa, and the eosinophils, neutrophils, macrophages and lymphocytes were counted by an optical microscope. The mice were euthanized with excess carbon dioxide. After the maximum blood volume was collected from the heart, the left lung was fixed with neutral formaldehyde and embedded in paraffin, sliced and HE staining, photographed to observe the lung injury and score.

IL-6 = IL-6 in alveolar lavage fluid of LPS-induced ALI/ARDS mice (Elisa); conditions: for Inhibition of IL-6 (%): oral single dose 0.5 h before LPS (146 150 mg/kg, 41 75 mg/kg, 450 100 mg/kg, dexamethasone 10 mg/kg), alveolar lavage fluid supernatant 4 hours after LPS
Method: as §1

IL-1β = IL-1β in alveolar lavage fluid of LPS-induced ALI/ARDS mice (Elisa); conditions: for Inhibition of IL-1β (%): oral single dose 0.5 h before LPS (146 150 mg/kg, 41 75 mg/kg, 450 100 mg/kg, dexamethasone 10 mg/kg), alveolar lavage fluid supernatant 4 hours after LPS
Method: as §1

[2] = Body weight of LPS-induced ALI/ARDS mice; conditions: oral dosing 0.5 h before and 6 hours after LPS (146 150 mg/kg, 41 75 mg/kg, 450 100 mg/kg, dexamethasone 10 mg/kg); 24 hours after LPS; Mean±SEM
Method: as §2

[3] = system: LPS-induced ALI/ARDS model mice; assay: Lung pathology score (HE staining) in LPS-induced ALI/ARDS mice; conditions: left lung HE staining, 24 hours after LPS; four categories each scored 0 to 4
Method: LPS induced model was given again after 6 hours, and the dose was the same as that of the first administration. […] The mice were euthanized with excess carbon dioxide. After the maximum blood volume was collected from the heart, the left lung was fixed with neutral formaldehyde and embedded in paraffin, sliced and HE staining, photographed to observe the lung injury and score.
Lung pathology scoring criteria: (1) alveolar congestion; (2) hemorrhage; (3) neutrophil infiltration into airspace or vascular wall; (4) alveolar wall/thickness formed by hyaline membrane.

[4] = after acting for 4 hours, comparison between compounds 146, 450, 41 and model group

Compound | Inhibition of TNF-α (%) (TNF-α) | Eosinophils (*10^4) [1] | Lymphocytes (*10^4) [1] | Macrophages (*10^4) [1] | Neutrophils (*10^4) [1] | Total cell count (*10^4) [1] | Inhibition of IL-6 (%) (IL-6) | Inhibition of IL-1β (%) (IL-1β) | Weight [2] [g] | Pulmonary pathology score [3] | TNF-α inhibitory effect (in words) (TNF-α; [4]) | IL-6 inhibitory effect (in words) (IL-6; [4]) | IL-1β inhibitory effect (in words) (IL-1β; [4])
Cc1cc(-c2nc(C(=O)Nc3cc4oc(N5CCOCC5)nc4nc3N3CC[C@@H](O)C3)co2)ccn1 [Compound 41, (R)-N-(5-(3-hydroxypyrrolidine-1-yl)-2-morpholinoxazo [4,5-b]pyridine-6-yl)-2-(2-methylpyridine-4-yl) oxazole-4-formamide] | 12.90 | 2.81 *10^4 | 3.71 *10^4 | 89.06 *10^4 | 466.17 *10^4 | 561.75 *10^4 | 21.40 | 52.00 | 19.45 ± 0.71 | 4.17 |  |  | 
CC[C@@H]1[C@H](F)C(=O)N[C@@H]1COc1nccc2cc(C(N)=O)c(OC)cc12 [Compound 450] | 28.70 | 3.11 *10^4 | 2.74 *10^4 | 74.91 *10^4 | 386.74 *10^4 | 467.50 *10^4 | 36.40 | 43.90 | 18.68 ± 0.4 | 4.83 | significantly lower than that of compound 146 | significantly lower than that of compound 146 | significantly lower than that of compound 146
C[C@@H]1C[C@H]2[C@@H]3CCC4=CC(=O)C=C[C@]4(C)[C@@]3(F)[C@@H](O)C[C@]2(C)[C@@]1(O)C(=O)CO [Dexamethasone, dexamethasone] | 128.70 | 3.17 *10^4 | 3.25 *10^4 | 108.20 *10^4 | 361.63 *10^4 | 476.25 *10^4 | 0.00 | 0.00 | 18.91 ± 0.74 | 3.50 |  |  | 
